Laboratory results reported in patent publication US9221791B2, “Metalloenzyme inhibitor compounds” (Viamet Pharmaceuticals, Inc., priority 2011, dated 2015).
In brackets after ≈: the same amount, converted by molar mass.

Legend:
[1] = test system: Septoria tritici (ATCC 26517); test: Minimum Inhibitory Concentration (MIC) (Septoria tritici), CLSI-based microdilution; assay type: cell-based; conditions: Zymoseptoria tritici, ATCC26517, 168 h, S. tritici ATCC 26517; 22° C. for seven days; 50% reduction in growth; read-out: Septoria Rating (MIC)
Experimental: C. Minimum Inhibitory Concentration (MIC) (Septoria tritici)
Compounds of the present disclosure were assessed for their ability to inhibit the growth of a common strain of the fungal plant pathogen Septoria tritici (ATCC 26517) using a procedure based on a Clinical and Laboratory Standards Institute (CLSI) microdilution assay protocol for filamentous fungi.
Stock solutions of the test compounds and standards were prepared in DMSO at 6400 μg/mL. Each stock solution was used to prepare a 2-fold dilution series ranging from 16 to 0.016 μg/mL (total of 11 compound concentrations) in RPMI-1640 (Roswell Park Memorial Institute) medium containing 3-(N-morpholino)propanesulfonic acid (MOPS) buffer and 2% DMSO. A 100 μL aliquot of the dilutions was added to columns 1 (16 μg/mL compound) through 11 (0.016 μg/mL compound) of a 96-well microtiter plate. This format was replicated in a second row of the microtiter plate. Thus, each microtiter plate could include 11 concentrations of four test or control compounds replicated twice. A 100 μL aliquot of RPMI-1640/MOPS/2% DMSO medium was added to column 12 (no compound control) of the microtiter plate.
A fresh culture of S. tritici was used to prepare a solution of approximately 5×10^4 colony-forming units per milliliter (cfu/mL) in RPMI/MOPS medium without DMSO. A 100 µL aliquot of this solution was added to all 96 wells in the microtiter plate. […] The assay plates were incubated at 22° C. for seven days in the dark without shaking.
In each case of Table 3 the Septoria rating scale is as follows: […]

[2] = test system: Puccinia recondita tritici = Puccinia triticina; test: Fungicidal activity vs. leaf rust on wheat plants; assay type: in vivo; conditions: wheat (variety Yuma) sprayed at 50 ppm, inoculated on the following day, evaluated 7-9 days later; read-out: Puccinia Rating (% Disease Control @ 50 ppm)
From the text: D. Evaluation of Fungicidal Activity Vs. Leaf Rust (Causal Agent Puccinia recondita tritici=Puccinia triticina; Bayer Code PUCCRT). […] Each pot contained 3-8 seedlings. These plants were sprayed until wet with the formulated test compounds. The compounds were formulated at 50 ppm in 10 vol. % acetone plus 90 vol. % Triton X water (deionized water 99.99 wt %+0.01 wt % Triton X100), giving a “formulated test compound.” Formulated test compounds were applied to plants using a turn table sprayer fitted with two opposing air atomization nozzles which delivered approximately 1500 L/ha of spray volume. On the following day, the leaves were inoculated with an aqueous spore suspension of Puccinia recondita tritici and the plants were kept in high humidity overnight to permit spores to germinate and infect the leaf. The plants were then transferred to a greenhouse until disease developed on untreated control plants. Disease severity was evaluated 7-9 days later, depending on the speed of disease development. In each case of Table 3, the Puccinia rating scale is as follows: […]

| SMILES | MIC [1] [mg/L] | pest or weed control at 50 ppm [2] [%] |
| --- | --- | --- |
| OC(Cn1cnnn1)(c1ccc(Cl)cc1F)C(F)(F)c1ccc(-n2nccn2)cn1 (stereo not drawn) [Compound 28, 1-(5-(2H-1,2,3-Triazol-2-yl)pyridin-2-yl)-2-(4-chloro-2-fluorophenyl)-1,1-difluoro-3-(1H-tetrazol-1-yl)propan-2-ol] | ≤ 0.5 | 80 to 100 |
| OC(Cn1cncn1)(c1ccc(F)cc1F)C(F)(F)c1ccc(Cl)cn1 (stereo not drawn) [Compound 29, 1-(5-Chloropyridin-2-yl)-2-(2,4-difluorophenyl)-1,1-difluoro-3-(1H-1,2,4-triazol-1-yl)propan-2-ol] | ≤ 0.5 | 80 to 100 |
| COc1ccc(-c2ccc(C(F)(F)C(O)(Cn3cnnn3)c3ccc(F)cc3F)nc2)s1 (stereo not drawn) [Compound 32, 2-(2,4-Difluorophenyl)-1,1-difluoro-1-(5-(5-methoxythiophen-2-yl)pyridin-2-yl)-3-(1H-tetrazol-1-yl)propan-2-ol] | ≤ 0.5 | 40 to 59 |
| OC(Cn1cnnn1)(c1ccc(F)cc1F)C(F)(F)c1ccc(-c2ccc(C(F)F)s2)cn1 (stereo not drawn) [Compound 33, 1-(5-(5-(Difluoromethyl)thiophen-2-yl)pyridin-2-yl)-2-(2,4-difluorophenyl)-1,1-difluoro-3-(1H-tetrazol-1-yl)propan-2-ol] | ≤ 0.5 | 80 to 100 |
| OC(Cn1cnnn1)(c1ccc(F)cc1F)C(F)(F)c1ccc(-c2ccc(C(F)(F)F)s2)cn1 (stereo not drawn) [Compound 34, 2-(2,4-Difluorophenyl)-1,1-difluoro-3-(1H-tetrazol-1-yl)-1-(5-(5-(trifluoromethyl)thiophen-2-yl)pyridin-2-yl)propan-2-ol] | 1.5 (≈ 2.98 µM) | 80 to 100 |
| OC(Cn1cnnn1)(c1ccc(F)cc1F)C(F)(F)c1ccc(-c2nccs2)cn1 (stereo not drawn) [Compound 38, 2-(2,4-Difluorophenyl)-1,1-difluoro-3-(1H-tetrazol-1-yl)-1-(5-(thiazol-2-yl)pyridin-2-yl)propan-2-ol] | ≤ 0.5 | 80 to 100 |
| OC(Cn1cnnn1)(c1ccc(Cl)cc1F)C(F)(F)c1ccc(CC(F)(F)F)cn1 (stereo not drawn) [Compound 39, 2-(4-Chloro-2-fluorophenyl)-1,1-difluoro-3-(1H-tetrazol-1-yl)-1-(5-(2,2,2-trifluoroethyl)pyridin-2-yl)propan-2-ol] | ≤ 0.5 | 80 to 100 |
| OC(Cn1cnnn1)(c1ccc(Cl)cc1F)C(F)(F)c1ccc(C2CC2)cn1 (stereo not drawn) [Compound 40, 2-(4-Chloro-2-fluorophenyl)-1-(5-cyclopropylpyridin-2-yl)-1,1-difluoro-3-(1H-tetrazol-1-yl)propan-2-ol] | ≤ 0.5 | 80 to 100 |
| OC(Cn1cnnn1)(c1ccc(F)cc1F)C(F)(F)c1ccc(CCCOCC(F)(F)F)cn1 (stereo not drawn) [Compound 45, 2-(2,4-Difluorophenyl)-1,1-difluoro-3-(1H-tetrazol-1-yl)-1-(5-(3-(2,2,2-trifluoroethoxy)propyl)pyridin-2-yl)propan-2-ol] | ≤ 0.5 | 80 to 100 |
| CCOC/C=C/c1ccc(C(F)(F)C(O)(Cn2cnnn2)c2ccc(F)cc2F)nc1 (stereo not drawn) [Compound 51, (E)-2-(2,4-Difluorophenyl)-1-(5-(3-ethoxyprop-1-en-1-yl)pyridin-2-yl)-1,1-difluoro-3-(1H-tetrazol-1-yl)propan-2-ol] | ≤ 0.5 | < 40 |
| CCOC/C=C\c1ccc(C(F)(F)C(O)(Cn2cnnn2)c2ccc(F)cc2F)nc1 (stereo not drawn) [Compound 52, (Z)-2-(2,4-Difluorophenyl)-1-(5-(3-ethoxyprop-1-en-1-yl)pyridin-2-yl)-1,1-difluoro-3-(1H-tetrazol-1-yl)propan-2-ol] | ≤ 0.5 | < 40 |

The next lines start with results.

| MIC [1] [mg/L] | SMILES | pest or weed control at 50 ppm [2] [%] |
| --- | --- | --- |
| ≤ 0.5 | CCOCCCc1ccc(C(F)(F)C(O)(Cn2cnnn2)c2ccc(F)cc2F)nc1 (stereo not drawn) [Compound 53, 2-(2,4-Difluorophenyl)-1-(5-(3-ethoxypropyl)pyridin-2-yl)-1,1-difluoro-3-(1H-tetrazol-1-yl)propan-2-ol] | 80 to 100 |
| 1.5 (≈ 3.32 µM) | CC(C)OC/C=C/c1ccc(C(F)(F)C(O)(Cn2cnnn2)c2ccc(F)cc2F)nc1 (stereo not drawn) [Compound 54, (E)-2-(2,4-Difluorophenyl)-1,1-difluoro-1-(5-(3-isopropoxyprop-1-en-1-yl)pyridin-2-yl)-3-(1H-tetrazol-1-yl)propan-2-ol] | < 40 |
| ≤ 0.5 | OC(Cn1cnnn1)(c1ccc(F)cc1F)C(F)(F)c1ccc(CC2CC2)cn1 (stereo not drawn) [Compound 59, 1-(5-(Cyclopropylmethyl)pyridin-2-yl)-2-(2,4-difluorophenyl)-1,1-difluoro-3-(1H-tetrazol-1-yl)propan-2-ol] | 80 to 100 |
| ≤ 0.5 | OC(Cn1cnnn1)(c1ccc(Cl)cc1F)C(F)(F)c1ccc(CC2CC2)cn1 (stereo not drawn) [Compound 60, 2-(4-Chloro-2-fluorophenyl)-1-(5-(cyclopropylmethyl)pyridin-2-yl)-1,1-difluoro-3-(1H-tetrazol-1-yl)propan-2-ol] | 80 to 100 |
| ≤ 0.5 | O=C(c1ccc(C(F)(F)F)cc1)c1ccc(C(F)(F)C(O)(Cn2cnnn2)c2ccc(F)cc2F)nc1 (stereo not drawn) [Compound 66, (6-(2-(2,4-Difluorophenyl)-1,1-difluoro-2-hydroxy-3-(1H-tetrazol-1-yl)propyl)pyridin-3-yl)(4-(trifluoromethyl)phenyl)methanone] | 80 to 100 |
| ≤ 0.5 | O=C(c1ccc(Cl)cc1)c1ccc(C(F)(F)C(O)(Cn2cnnn2)c2ccc(F)cc2F)nc1 (stereo not drawn) [Compound 67, (4-Chlorophenyl)(6-(2-(2,4-difluorophenyl)-1,1-difluoro-2-hydroxy-3-(1H-tetrazol-1-yl)propyl)pyridin-3-yl)methanone] | 80 to 100 |
| ≤ 0.5 | O=C(c1ccc(OCC(F)(F)F)cc1)c1ccc(C(F)(F)C(O)(Cn2cnnn2)c2ccc(F)cc2F)nc1 (stereo not drawn) [Compound 68, (6-(2-(2,4-Difluorophenyl)-1,1-difluoro-2-hydroxy-3-(1H-tetrazol-1-yl)propyl)pyridin-3-yl)(4-(2,2,2-trifluoroethoxy)phenyl)methanone] | 80 to 100 |
| ≤ 0.5 | O=C(c1ccc(F)cc1)c1ccc(C(F)(F)C(O)(Cn2cnnn2)c2ccc(F)cc2F)nc1 (stereo not drawn) [Compound 69, (6-(2-(2,4-Difluorophenyl)-1,1-difluoro-2-hydroxy-3-(1H-tetrazol-1-yl)propyl)pyridin-3-yl)(4-fluorophenyl)methanone] | 80 to 100 |
| ≤ 0.5 | O=C(c1ccc(C(F)(F)C(O)(Cn2cnnn2)c2ccc(F)cc2F)nc1)c1ccc(Cl)c(F)c1 (stereo not drawn) [Compound 71, (4-Chloro-3-fluorophenyl)(6-(2-(2,4-difluorophenyl)-1,1-difluoro-2-hydroxy-3-(1H-tetrazol-1-yl)propyl)pyridin-3-yl)methanone] | 80 to 100 |
| ≤ 0.5 | OC(Cn1cnnn1)(c1ccc(F)cc1F)C(F)(F)c1ccc(Cc2ccc(C(F)(F)F)cc2)cn1 (stereo not drawn) [Compound 73, 2-(2,4-Difluorophenyl)-1,1-difluoro-3-(1H-tetrazol-1-yl)-1-(5-(4-(trifluoromethyl)benzyl)pyridin-2-yl)propan-2-ol] | 80 to 100 |
| ≤ 0.5 | OC(Cn1cnnn1)(c1ccc(F)cc1F)C(F)(F)c1ccc(Cc2ccccc2)cn1 (stereo not drawn) [Compound 75, 1-(5-Benzylpyridin-2-yl)-2-(2,4-difluorophenyl)-1,1-difluoro-3-(1H-tetrazol-1-yl)propan-2-ol] | 80 to 100 |
| ≤ 0.5 | OC(Cn1cnnn1)(c1ccc(F)cc1F)C(F)(F)c1ccc(Cc2ccc(OC(F)(F)F)cc2)cn1 (stereo not drawn) [Compound 76, 2-(2,4-Difluorophenyl)-1,1-difluoro-3-(1H-tetrazol-1-yl)-1-(5-(4-(trifluoromethoxy)benzyl)pyridin-2-yl)propan-2-ol] | 80 to 100 |
| ≤ 0.5 | OC(Cn1cnnn1)(c1ccc(F)cc1F)C(F)(F)c1ccc(Cc2ccc(Cl)cc2)cn1 (stereo not drawn) [Compound 77, 1-(5-(4-Chlorobenzyl)pyridin-2-yl)-2-(2,4-difluorophenyl)-1,1-difluoro-3-(1H-tetrazol-1-yl)propan-2-ol] | 80 to 100 |
